Earlier results on one compound are cited in US7481758B2, “Pharmaceutically enhanced low-energy radiosurgery” (Sirius Medicine, LLC, priority 1997, dated 2009).

The subject of series [1] is lymphocytes. Conditions: in lymphocytes; low-energy photons.
For series [2], the system named is brain tumors. Particulars: low-energy x-rays and iodine, brain tumors in rabbits.

As for `II` [iodine], the dose enhancement entry is “up to 3” in series [1] and “about 30%” in series [2].
